Laboratory results: patent US20180193336A1, “SPRAY DRY FORMULATIONS” (Pulmokine, Inc., priority 2013, published 2018)
Values joined by “and” are separate entries in the source; they are usually repeats but may differ in a detail not shown here. Identical values can stand only once. Like-named read-outs stand apart in the source and are kept apart here.

What was measured:
[1] = system: PDGFBB stimulated AKT phosphorylation; assay: In cell Western, PDGFBB stimulated AKT phosphorylation in human fetal lung fibroblasts; type: cell-based; details: for IC50: Fibroblast
Experimental: HLFs were maintained in subculture at no more than 6 passages in DMEM with 5% FBS and 4 mM Glutamax at 37° C., 5% CO2. HLFs were plated and grown to 70-80% confluence in 96 well plates then serum-starved for 48 hours. […] Antibodies were detected using IRDye 680LT goat anti-mouse IgG and IRDye 800 W goat α-rabbit IgG conjugated antibodies. After washing, the signal was quantified using an Odyssey Infrared Imaging System (LI-COR). Phosphoprotein signal (800 nm) was normalized to total protein signal (700 nm) acquired from each well and experimental duplicates on same plate were averaged and reported.

[2] = system: rat MCT model; assay: Efficacy in rat MCT model, PK10453 dose response; type: in vivo
Experimental: Male Sprague Dawley rats received MCT 60 mg/kg IPMCT, and after 3 weeks, PK10453 (Structure 2) or vehicle control were administered by inhalation. Four groups were studied: vehicle control (4 min exposure) and three treatment groups of PK10453 (Structure 2) with exposure times 2 min (D2), 4 min (D4), or 8 min (D8) three times a day. These regimens were administered for two weeks. The vehicle consisted of aerosolized 1M tosylic acid neutralized with ammonia vapor as described above. The pH of a solution prepared by dissolving captured aerosol particles in water was measured for every dose and was consistently in the range of 5.5-6.0. At the end of the study, the RV systolic pressure was measured, and the heart chambers dissected and weighed.

[3] = Pharmacokinetic study, inhaled vs intravenous, lung and plasma levels; type: in vivo, rat; details: [(AUClung/AUCplasma)respiratory]/[(AUClung/AUCplasma)IV]
Experimental: PK10453 (Structure 2) was administered intravenously or by inhalation to animals, which were then euthanized at time 0, 10, 20, and 60 min (n=3 each time point). Blood samples were taken by cardiac puncture, and the lungs excised. The lungs were homogenized and PK10453 (Structure 2) extracted with a 1:3 mixture of acetonitrile:methanol. Similarly, plasma was extracted with a 1:3 mixture of acetonitrile:methanol. Drug was assayed by LC MS/MS (PharmOptima Inc., Portage Mich.). First order exponential curves were fit to the data with Excel. AUC was determined with the trapezoidal method of integration.
For the pharmacokinetic study, the concentration of PK10453 (Structure 2) in lung when administered by inhalation was compared to the concentration achieved with IV administration. As described in Moren “Aerosols in medicine: principles, diagnosis, and therapy.” Amsterdam; New York: Elsevier, xx, 429 (1993) and Phalen et al., “Inhalation exposure methodology.” Environ Health Perspect 56:23-34 (1984)), it is possible to estimate the pharmacokinetic advantage of inhalation relative to intravenous administration, Rd, by comparing the AUC of a plot of the drug concentration as a function of time following respiratory and IV administration: […]
The pharmacokinetic data was modeled to a first order exponential curve, and the AUC calculated from the curves (see Table 2). […]

[4] = system: phosphorylated AKT, STAT3 and ERK1/2 in lung extracts; assay: NanoPro immunoassay of lung extracts, rat MCT+PN model; type: in vivo
Experimental: Relative differences in phosphorylated ERK1/2 and STAT isoforms were measured with a anoProlOO® immunoassay system (Protein Simple/Cell Biosciences, CA). See Fan et al., “Nanofluidic proteomic assay for serial analysis of oncoprotein activation in clinical specimens.” Nat Med 15:566-571 (2009).

[5] = system: PDGFAA stimulated phosphorylation of ERK1 and ERK2; assay: PDGFAA stimulated phosphorylation of ERK1 and ERK2 in human fetal lung fibroblasts; type: cell-based; details: 1 uM; PDGFAA 10 ng/ml
Excerpt: Data shown are mean±SEM. […] PK10453=structure 2; PK10571=structure 2a. Platelet derived growth factor receptor alpha=PDGFR-alpha=PDGFR-α=PDGF receptor alpha=PDGF alpha receptor. Platelet derived growth factor receptor beta=PDGFR-beta=PDGFRβ=PDGF receptor beta=PDGF beta receptor.

[6] = system: rat MCT+PN model; assay: Telemetry of pulmonary artery pressure in rat MCT+PN model; type: in vivo; details: for PA systolic pressure: separate MCT+PN telemetry study
Experimental: Pneumonectomy and implantation of a TRM53P telemetry monitor in the pulmonary artery (Telemetry Research, New Zealand and ADInstruments, Colorado) was carried out in rats. Two weeks after MCT, PK10453 (Structure 2) was administered three times daily for 1 week. […] The two groups underwent 4 min exposures of either the vehicle control or PK10453 (Structure 2). Sampling of PA pressure was performed 5 min before each morning dose in ambulatory animals in room air (estimated atmospheric pressure 716 mm Hg based on elevation of animal facility). […] Telemetry data was obtained for 10 min daily before each morning dose for this protocol.

[7] = Fluorescent imaging of lung distribution after inhalation with IR780 tracer; type: in vivo, rat; details: 2 min inhalation with IR780 tracer
Experimental: A near IR fluorescent tracer, IR-780, was added to the drug solution in the nebulizer to ensure dried aerosol particles contained both the drug and IR tracer. After a two min exposure, animals were placed under general anesthesia underwent intubation via tracheostomy, and the lungs were excised. OCT/PBS was infused via the pulmonary artery, the lung insufflated with air, and the lungs frozen in the vapor phase of liquid nitrogen. Serial approximate 2 mm sections of lung were imaged on a Licor Odyssey Imager.

[8] = Systemic blood pressure study in ambulatory MCT treated rats; type: in vivo, rat
Experimental: The effect of PK10453 (Structure 2) on systemic BP was studied in ambulatory MCT treated rats with DSI PAC40 transmitters implanted in the descending aorta. […] Blood pressure was recorded before each morning dose.

[9] = system: rat MCT model
Experimental: At the end of the study RVSP pressure was measured; lung and heart fixed in formalin. For measurement of RVSP animals were sedated with isoflurane, intubated via a tracheostomy, and ventilated with a TOPOVENT pressure regulated ventilator (peak inspiratory pressure 18 cm H20, PEEP 5 cm). After sternotomy, a Scisense high fidelity catheter inserted via the RV apex.
At the end of the study, the heart and lungs were removed from ventilated animals under general anesthesia. Heparinized saline was infused under pressure through the main pulmonary artery. […] The heart was removed, and the RV free wall, interventricular septum and LV free wall dissected and weighed. Buffered formalin (10%) was infused under pressure both through the pulmonary artery and the trachea. Morphometric analysis was performed on H&E stained formalin fixed tissue sectioned at 8 μm. The media area and lumen area of pulmonary arterioles were measured with Image J software by a technician blinded to treatment group. Measurements were made on 20 pulmonary arterioles per section. The ratio of the lumen area to the total media area was determined. This ratio normalizes the variation in total pulmonary arteriole area. […] Briefly, pre-capillary arterioles were assigned grade 0 for no evidence of neointimal lesions, grade 1 for less than 50% luminal occlusion, and grade 2 for greater than 50% occlusion.

[10] = Body weights of treated rats; type: in vivo, rat; details: D4 and D8 groups; FIG. 19
[11] = 8 min inhalation three times a day, two weeks

Work on `COc1cc(-c2cncc(N[C@@H](C)c3cccc(NC(=O)c4cncc(C)c4)c3)n2)ccc1O` [PK10453, (S)—N-(3-(1-((6-(4-hydroxy-β-methoxyphenyl)pyrazin-2yl)amino)ethyl)phenyl)-5-methylnicotinamide] yielded an IC50 ([1]; human fetal lung fibroblasts, 10 ng/ml PDGFBB, read-out: IC50 for PDGFBB stimulated AKT phosphorylation at Ser473) of 130 nM, an IC50 ([1]; human fetal lung fibroblasts, 10 ng/ml PDGFBB, read-out: IC50 for PDGFBB stimulated AKT phosphorylation at Thr308) of 430 nM and an IC50 ([1]; human fetal lung fibroblasts, legend of FIG. 2 PANEL C, read-out: IC50 for PDGFBB stimulation of pAKT(Ser473)) of 130 nM. For the same compound, the IC50 ([1]; Homo sapiens, FIG. 26, each concentration in duplicate, read-out: IC50, PDGF BB stimulated pAKT in human lung fibroblasts) was 150 nM, the “IC50 for inhibiting PDGFBB stimulated AKT phosphorylation relative to imatinib” value ([1]; fetal human lung fibroblasts, FIG. 18) was “lower IC50 concentration compared to imatinib” and the “degree of RV hypertrophy, ratio (RV+IVS)/LV weight” value ([2]; rat MCT) was “significant reduction”. The “decrease of RV systolic pressure” value ([2]; rat MCT model, discussion) was 50%, the “reduction in RVSP compared to the vehicle treated group” value ([2]; rat MCT, D4) was 44% and the “reduction in RVSP compared to the vehicle treated group” value ([2]; rat MCT, D8) was 54%. For the same compound, the “Rd, pharmacokinetic advantage of inhalation relative to intravenous administration” value [3] was 44.6 fold and 45 fold and 44.58 fold, the “pAKT(Ser473)/AKT ratio in lung extracts” value [4] was “significant reduction” and the “pERK1/ERK1 in lung homogenates” value ([4]; D4 and D8 compared to vehicle) was “significant reductions”. For the same compound, the “pSTAT3/STAT3 ratio in lung” value ([4]; D4 and D8 compared to vehicle) was “significant reduction”, the “ppERK1/ERK1 in lung homogenates” value ([4]; D4 and D8 compared to vehicle) was “significant reductions” and the “pAKT(Thr308)/AKT ratio in lung extracts” value ([4]; V, D4, D8) was “not significantly different”. The “decrease of PDGF AA stimulated ppERK1 and ppERK2 formation” value [5] was “equally effective”, the “efficacy by inhalation in the MCT+PN model” value ([6]; rat MCT+PN) was “effective in lowering pulmonary pressures” and the PA systolic pressure ([6]; after five days of treatment) was 47.2±3.0 mm Hg. For the same compound, the PA systolic pressure ([6]; treatment day 9) was 50.5±7 mm Hg, the “spatial distribution in lung after inhalation” value [7] was “well distributed throughout the lungs” and the “systolic BP” value ([8]; MCT rats, day seven of treatment, 4 min exposure 3×/d) was 131±10 mmHg. The “effect on systemic BP” value ([8]; rat MCT model) was “did not have an adverse effect”, the “end diastolic volume, ejection fraction, cardiac output, stroke work, difference between groups” value [9] was “no significant differences” and the Lumen/Media ratio ([9]; 8 min exposures) was 0.94±0.08. The End systolic volume [9, 11] was 99.5 µL, the “RV end systolic pressure” value [9, 11] was 36.3±2.6 mm Hg and the “body weight compared to vehicle” value [10] was “trend to a slower rate of decline”.
